Results from patent US6093729A, “Substituted bicyclic heteroaroylguanidines, a process for their preparation, their use as a medicament or a diagnostic agent, and a medicament containing them” (priority 1994, dated 2000).
Structures can show the parent of a compound that is named as a salt.

Assays:
[1] = molecular target: T1, Na^+ /H^+ exchanger of rabbit erythrocytes (Oryctolagus cuniculus, UniProt P23791); assay: Inhibition of the Na^+ /H^+ exchanger of rabbit erythrocytes (amiloride-sensitive sodium influx, flame photometry); assay type: cell-based, rabbit (New Zealand White); settings: pH 7.4, 37° C.
T1 construct: determine the Na^+ influx into the erythrocytes; endogenous in cells; host or cells: erythrocytes of cholesterol-fed New Zealand White rabbits (Ivanovas)
T1 sequence (P23791 whole entry): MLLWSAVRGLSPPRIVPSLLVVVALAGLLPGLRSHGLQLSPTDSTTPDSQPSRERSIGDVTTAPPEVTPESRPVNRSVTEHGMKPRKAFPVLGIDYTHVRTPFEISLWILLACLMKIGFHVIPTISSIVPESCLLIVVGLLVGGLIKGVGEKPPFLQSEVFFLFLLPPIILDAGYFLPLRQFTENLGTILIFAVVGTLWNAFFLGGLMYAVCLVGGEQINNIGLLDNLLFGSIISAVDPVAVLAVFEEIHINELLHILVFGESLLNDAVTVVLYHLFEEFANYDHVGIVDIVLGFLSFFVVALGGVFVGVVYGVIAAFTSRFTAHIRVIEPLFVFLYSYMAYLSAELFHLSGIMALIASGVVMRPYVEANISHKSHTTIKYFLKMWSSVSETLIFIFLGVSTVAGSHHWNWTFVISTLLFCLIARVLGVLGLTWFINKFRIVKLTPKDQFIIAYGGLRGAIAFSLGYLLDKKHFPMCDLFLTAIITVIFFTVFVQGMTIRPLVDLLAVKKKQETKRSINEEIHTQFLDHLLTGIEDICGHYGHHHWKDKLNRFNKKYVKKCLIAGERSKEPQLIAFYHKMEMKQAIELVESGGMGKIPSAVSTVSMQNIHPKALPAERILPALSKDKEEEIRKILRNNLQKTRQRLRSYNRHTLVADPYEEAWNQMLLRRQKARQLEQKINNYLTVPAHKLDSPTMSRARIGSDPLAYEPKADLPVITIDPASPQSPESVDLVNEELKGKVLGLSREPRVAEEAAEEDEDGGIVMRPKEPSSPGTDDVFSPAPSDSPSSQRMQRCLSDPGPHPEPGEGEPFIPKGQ
Text: Inhibition of the Na^+ /H^+ exchanger of rabbit erythrocytes:
New Zealand White rabbits (Ivanovas) were given a standard diet containing 2% cholesterol for six weeks in order to activate Na^+ /H^+ exchange and thus to be able to use flame photometry to determine the Na^+ influx into the erythrocytes via […]. The blood was removed from the aural arteries and rendered incoagulable by the addition of 25 IU of potassium heparin. One part of each sample was used for the duplicate determination of the hematocrit by centrifugation. Aliquots of in each case 100 μl were employed for measuring the initial content of Na^+ in the erythrocytes.
In order to determine the amiloride-sensitive sodium influx, 100 μl of each blood sample were in each case incubated, at pH 7.4 and 37° C., in 5 ml of a hyperosmolar salt/sucrose medium ([…]: 140 NaCl, 3 KCl, 150 sucrose, 0.1 ouabain, 20 tris(hydroxymethyl)aminomethane). The erythrocytes were then washed three times with ice cold MgCl2 /ouabain solution ([…]: 112 MgCl2, 0.1 ouabain) and hemolyzed in 2.0 ml of distilled water. The intracellular content of sodium was determined by flame photometry.
The nett influx of Na^+ was calculated from the difference between the initial sodium values and the sodium content of the erythrocytes following incubation. The amilorideinhibitable sodium influx was given by the difference in the sodium content of the erythrocytes following incubation with and without 3×10-4 mol/l amiloride. The same procedure was also used in the case of the compounds according to the invention.

[2] = tested on: rat hearts; settings: isolated rat hearts, cited from earlier work
[3] = cited from earlier work

Structure (SMILES): NC(N)=NC(=O)c1ccc2ccccc2n1 [Example 1, Quinoline-2-carboguanidide Dihydrochloride]
- IC50 [1]: 2 to 3 µM

Structure (SMILES): NC(N)=NC(=O)c1cnc2ccccc2c1 [Example 2, Quinoline-3-carboguanidide Dihydrochloride]
- IC50 [1]: 1.2 µM

Structure (SMILES): NC(N)=NC(=O)c1ccc2ncccc2c1 [Example 3, Quinolin-6-carboguanidide]
- IC50 [1]: 3 to 5 µM

Structure (SMILES): NC(N)=NC(=O)c1ccc2cnccc2c1 [Example 4, Isoquinoline-6-carboguanidide]
- IC50 [1]: 10 µM

Structure (SMILES): Cc1nc2ccc(Cl)cc2cc1C(=O)N=C(N)N [Example 8, 6-Chloro-2-methylquinoline-3-carboguanidide hydrochloride]
- IC50 [1]: < 1 µM

Structure (SMILES): NC(N)=NC(=O)c1nc(Cl)c(N)nc1N [amiloride]
- suppression of artificially induced ventricular fibrillation ([2]; Eur. Heart J. 9 (suppl. 1): 167 (1988)): completely suppress artificially induced ventricular fibrillation
- antiarrhythmic effect ([3]; Circulation 79, 1257-63 (1989)): only weakly expressed
- accompanying effects undesirable when treating cardiac arrhythmias ([3]; side effects): hypotensive and saluretic effects

Structure (SMILES): CCN(c1nc(N)c(C(=O)N=C(N)N)nc1Cl)C(C)C [ethylisopropyl amiloride, Ethylisopropylamiloride]
- potency relative to amiloride against artificially induced ventricular fibrillation ([2]; compared with amiloride): even more potent than amiloride
